{
  "source": "patent US12679860B2",
  "about": "“C-terminal HSP90 inhibitors” (UNIVERSITY OF KANSAS, priority 2012, dated 2026)",
  "key": {"[1]": {"tested_on": "Hsp70", "assay": "Immunoblot analysis of induction of Hsp70 in DRG sensory neurons", "type": "cell-based, Sprague Dawley rat", "conditions": "24 hours incubation, then 4 hours of glucotoxic stress; Hsp70 normalized to β-actin", "protocol": "DRG sensory neurons were incubated in the presence of DMSO (Cntrl) or 10-1000 nM of the indicated novologue overnight and then subjected to 4 hrs of hyperglycemia. The neurons were harvested and Hsp70 and β-actin levels were determined by immunoblot analysis. Band intensity was quantified using Image J, Hsp70 expression was normalized to the level of β-actin.\nSince it was previously shown that the cytoprotective activity manifested by KU-32 requires Hsp70, the ability of 11b and 11n to induce Hsp70 was determined relative to KU-32. Increasing concentrations of KU-32, 11n, and 11b were incubated with DRG sensory neurons for 24 hours before the cells were subjected to 4 hours of glucotoxic stress. Hsp70 levels were examined by performing immunoblot analysis with the cellular lysates (FIG. 5). 11n and 11b induced Hsp70 levels at similar concentrations (10 nM) as those needed for neuroprotection.\nDRG from embryonic day 15-18 Sprague Dawley rat pups were harvested into Leibovitz's L15 medium (L15) and dissociated with 0.25% trypsin for 30 min at 37° C. […]"}, "[2]": {"tested_on": "embryonic dorsal root ganglion (DRG) sensory neuron cultures", "assay": "Glucotoxicity assay: cell viability (calcein AM) of DRG sensory neurons under glucose-induced toxicity", "type": "cell-based, Sprague Dawley rat", "conditions": "for EC50: 0.1-1000 nM novologue overnight, then 4 hrs of hyperglycemia, mean±SEM (n=3-8), read-out: EC50 for protection against glucose-induced toxicity", "protocol": "DRG sensory neurons were incubated in the absence or presence of 0.1-1000 nM of the indicated novologue overnight and then subjected to 4 hrs of hyperglycemia.\nThe ganglia were sedimented at 1,000×g for 5 min, resuspended in growth media [phenol red free Neurobasal medium (Gibco, Grand Island, NY) containing 25 mM glucose, 1X B-27 additive, 50 ng/ml NGF (Harlan Bioscience, Indianapolis, IN), 4 mM glutamine, 100 U/mL penicillin and 100 μg/mL streptomycin] and triturated with a fire-polished glass pipette. The cells were cultured on collagen-coated (0.1 mg/mL collagen followed by overnight air drying in a laminar flow hood) black-walled 96-well plates (Corning Incorporated Corning, NY) at a seeding density of 2-3×10^4 cells per well. DRG neurons were re-fed the next day with fresh growth media containing 40 μM fluorodeoxyuridine and 10 μM cytosine β-D-arabinoside (both from Sigma Aldrich, St. Louis, MO) for 2 days to remove proliferating cells. Experiments were performed on DRG neurons on the third day in culture after placing the cells in fresh growth medium. […]\nDRG neurons were incubated overnight with the test compounds in the presence of Neurobasal medium, 50 ng/ml NGF and antibiotics only. In order to monitor the efficiency of the compounds in protecting DRG neurons against glucotoxicity, Calcein AM (Invitrogen, Carlsbad, CA) was utilized to measure cell viability. Hydrolysis of calcein AM to a fluorescent product can only occur in live cells. Excess glucose was added to the cultures for 4 hrs and cell viability was measured by incubating the cells with 2 μM calcein AM for 30 min in the dark at 37° C. Fluorescence was then measured using a plate reader with excitation and emission wavelengths set to 485 nm and 520 nm, respectively. The arbitrary fluorescence readings were normalized to the total amount of protein from each respective well of the neuronal cultures. The protein concentrations in each well were determined using the DC protein assay (Bio-Rad). Significant differences in the efficacy of the novologues for increasing cell viability were determined using a Kruskal-Wallis non-parametric ANOVA and Dunn's post-test."}, "[3]": {"tested_on": "diabetic mice", "conditions": "weekly treatment, cited from earlier work"}, "[4]": {"tested_on": "myelinated cultures of sensory neurons prepared from Hsp70.1 and 70.3 double knockout mice", "conditions": "sensory neurons from Hsp70.1 and 70.3 double knockout mice; cited from earlier work"}},
  "note": "Like-named read-outs stand apart in the source and are kept apart here.",
  "data": [
    {"smiles": "CO[C@@H]1[C@@H](O)[C@@H](O)C(Oc2ccc(CCNC(C)=O)c(-c3ccc4c(c3)OCO4)c2)OC1(C)C", "note": "(stereo partly drawn) [11n, N-(2-(benzo[d][1,3]dioxol-5-yl)-4-(((3R,4S,5R)-3,4-dihydroxy-5-methoxy-6,6-dimethyltetrahydro-2H-pyran-2-yl)oxy)phenethyl)acetamide]", "values": [
      {"measurement": "concentration at which Hsp70 levels were induced", "setting": "[1]", "value": 10, "unit": "nM"},
      {"measurement": "EC50", "setting": "[2]; Rattus norvegicus, Neuron", "value": "18.4 ± 3.2", "unit": "nM"},
      {"measurement": "viability at 1 µM", "setting": "[2]; Rattus norvegicus, Neuron, Table 1, 1 μM of each novologue + 20 mM excess glucose, glucose + DMSO was 54% ± 2", "value": 83, "unit": "%"}
    ]},
    {"smiles": "CO[C@@H]1[C@@H](O)[C@@H](O)[C@H](Oc2ccc3cc(NC(C)=O)c(=O)oc3c2C)OC1(C)C", "note": "[KU-32]", "values": [
      {"measurement": "reversal of clinical indices of DPN", "setting": "[3]; diabetic Hsp70 knockout mice", "value": "unable to reverse multiple clinical indices of DPN"},
      {"measurement": "sensory and motor nerve function", "setting": "[3]; diabetic wild type mice", "value": "restored normal sensory and motor nerve function"},
      {"measurement": "EC50", "setting": "[2]", "value": "240 ± 42.5", "unit": "nM"},
      {"measurement": "prevention of neuregulin-induced demyelination", "setting": "[4]", "value": "ineffective"}
    ]}
  ]
}
